Laboratory results from PMC10489980, “Design of Potent and Salt-Insensitive Antimicrobial Branched Peptides” (Polymers, 2023).
Residues, ends and D or L forms follow the SMILES beside them.

Tests used:
Type in all cases: cell-based
[1] = test system: Micrococcus luteus ATCC 49,732; details: ATCC 49, 3 h
Description: (§1) Ten organisms obtained from the American Type Culture Collection (ATCC; Rockville, MD) were used for antimicrobial assays. Four Gram-negative bacteria included Escherichia coli ATCC 25922, Pseudomonas aeruginosa ATCC 27853, Klebsiella oxytoca ATCC 49131, and Proteus vulgaris ATCC 49132. The three Gram-positive bacteria were Staphylococcus aureus 29213, Micrococcus luteus ATCC 49,732, and Enterococcus faecalis ATCC 29212. The three fungi were Candida albicans ATCC 37092, Candida kefyr ATCC 37095, and Candida tropicalis ATCC 37097. The clinical isolates were obtained from Singapore General Hospital (SGH). They are Enterococcus faecium, Staphylococcus aureus, Klebsiella pneumoniae, Acinetobacter baumannii, Pseudomonas aeruginosa, and Enterobacter species. The strains were incubated in trypticase soy broth (TSB), which was prepared in double distilled water and autoclaved for sterilization. TSB was purchased from Becton-Dickinson (Cockeysville, MD, USA).
(§2) Antimicrobial Assays. A sensitive and reproducible two-stage radial diffusion antimicrobial assay of Lehrer et al. was employed. A 1–4 × 10^6 colony-forming unit/mL of the test organism was mixed with 10 mL of molten underlay gel solution and poured into Petri dishes to form a uniform layer. The gel solution consisted of 10 mM sodium phosphate buffer, 0.03% TSB, and 0.02% Tween-20, with the addition of 100 mM NaCl in the case of high-salt conditions. Upon gel solidification, gel wells were made by a 3-mm diameter template in an evenly spaced array. A 5 µL aliquot of a serial half-log dilution of test peptides at seven concentrations was added to each well after removal of gel plugs. The dishes were incubated at 37 °C for 3 h to allow peptide diffusion into the underlay gels. Gels were overlaid with 10 mL of 1% agarose in 6% TSB (wt/vol). After additional incubation at 37 °C for 16–24 h, the diameter of the clear zone surrounding the wells (colony-free) was measured under a microscope. Antimicrobial activities were expressed in units (0.1 mm = 1 unit), and the MICs (in µM) were determined from the x-intercepts of the dose-response curves. Experiments were performed in triplicates.

[2] = test system: Staphylococcus aureus 29213; details: 29213, 3 h
Description: as §1, §2

Candida kefyr ATCC 37095 = details: ATCC 37095, 3 h
Description: as §1, §2

[3] = test system: Enterococcus faecalis ATCC 29212; details: ATCC 29212, 3 h
Description: as §1, §2

[4] = test system: Escherichia coli ATCC 25922; details: ATCC 25922, 3 h
Description: as §1, §2

[5] = test system: Klebsiella oxytoca ATCC 49131; details: ATCC 49131, 3 h
Description: as §1, §2

[6] = test system: Proteus vulgaris ATCC 49132; details: ATCC 49132, 3 h
Description: as §1, §2

[7] = test system: Candida tropicalis ATCC 37097; details: ATCC 37097, 3 h
Description: as §1, §2

[8] = test system: Candida albicans ATCC 37092; details: ATCC 37092, 3 h
Description: as §1, §2

[9] = test system: Pseudomonas aeruginosa ATCC 27853; details: ATCC 27853, 3 h
Description: as §1, §2

Compound	MIC, M. luteus, H-Salt [1] [µM]	MIC, M. luteus, L-Salt [1] [µM]	MIC, S. aureus, H-Salt [2] [µM]	MIC, S. aureus, L-Salt [2] [µM]	MIC, C. kefyr, H-Salt (Candida kefyr ATCC 37095) [µM]	MIC, C. kefyr, L-Salt (Candida kefyr ATCC 37095) [µM]	MIC, E. faecalis, H-Salt [3] [µM]	MIC, E. faecalis, L-Salt [3] [µM]	MIC, E. coli, H-Salt [4] [µM]	MIC, E. coli, L-Salt [4] [µM]	MIC, K. oxytoca, H-Salt [5] [µM]	MIC, K. oxytoca, L-Salt [5] [µM]	MIC, P. vulgaris, H-Salt [6] [µM]	MIC, P. vulgaris, L-Salt [6] [µM]	MIC, C. tropicalis, H-Salt [7] [µM]	MIC, C. tropicalis, L-Salt [7] [µM]	MIC, C. albicans, H-Salt [8] [µM]	MIC, C. albicans, L-Salt [8] [µM]	MIC, P. aeruginosa, H-Salt [9] [µM]	MIC, P. aeruginosa, L-Salt [9] [µM]
CC(C)C[C@H](NC(=O)[C@@H](N)CCCNC(=N)N)C(=O)N[C@@H](Cc1ccc(O)cc1)C(=O)N[C@@H](CCCNC(=N)N)C(=O)NCCCC[C@H](NC(=O)[C@H](CCCCNC(=O)[C@H](CCCNC(=N)N)NC(=O)[C@H](Cc1ccc(O)cc1)NC(=O)[C@H](CC(C)C)NC(=O)[C@@H](N)CCCNC(=N)N)NC(=O)[C@H](CCCCNC(=O)[C@H](CCCNC(=N)N)NC(=O)[C@H](Cc1ccc(O)cc1)NC(=O)[C@H](CC(C)C)NC(=O)[C@@H](N)CCCNC(=N)N)NC(=O)[C@H](CCCCNC(=O)[C@H](CCCNC(=N)N)NC(=O)[C@H](Cc1ccc(O)cc1)NC(=O)[C@H](CC(C)C)NC(=O)[C@@H](N)CCCNC(=N)N)NC(=O)[C@H](CCCNC(=N)N)NC(=O)[C@H](Cc1ccc(O)cc1)NC(=O)[C@H](CC(C)C)NC(=O)[C@@H](N)CCCNC(=N)N)C(N)=O [K5R] (HELM PEPTIDE1{R.L.Y.R.K.K.K.K.[am]}|PEPTIDE2{R.L.Y.R}|PEPTIDE3{R.L.Y.R}|PEPTIDE4{R.L.Y.R}|PEPTIDE5{R.L.Y.R}$PEPTIDE1,PEPTIDE2,8:R3-4:R2|PEPTIDE1,PEPTIDE3,7:R3-4:R2|PEPTIDE1,PEPTIDE4,6:R3-4:R2|PEPTIDE1,PEPTIDE5,5:R3-4:R2$$$V2.0; N-terminus assumed)	0.8	0.6	0.7	0.8	0.9	0.9	1.4	1.3	0.6	0.7	1.3	0.9	0.7	1.2	1.3	1.1	0.8	0.7	0.8	0.8
CC(=O)N[C@@H](CCCCNC(=O)[C@H](CCCNC(=N)N)NC(=O)[C@H](Cc1ccc(O)cc1)NC(=O)[C@H](CC(C)C)NC(=O)[C@@H](N)CCCNC(=N)N)C(=O)N[C@@H](CCCCNC(=O)[C@H](CCCNC(=N)N)NC(=O)[C@H](Cc1ccc(O)cc1)NC(=O)[C@H](CC(C)C)NC(=O)[C@@H](N)CCCNC(=N)N)C(=O)N[C@@H](CCCCNC(=O)[C@H](CCCNC(=N)N)NC(=O)[C@H](Cc1ccc(O)cc1)NC(=O)[C@H](CC(C)C)NC(=O)[C@@H](N)CCCNC(=N)N)C(N)=O [K3R]	0.8	0.7	0.6	0.6	0.7	0.8	1.3	1.0	0.8	0.7	0.8	0.7	1.0	0.6	0.6	1.1	0.7	1.0	0.7	0.9
